Assay results published in patent US7601850B2, “Phenyl-thiophene type vitamin D receptor modulators” (Eli Lilly and Company, priority 2002, dated 2009).

tested on: rat osteocalcin promoter; test: OCN (osteocalcin) promoter assay in RG-15 (ROS 17/2.8) cells; format: cell-based; conditions: not given
Protocol: 4. The OCN Promoter test is described in the “Assay” section of the Description, infra.
3. The OCN (Osteocalcin) Promoter Assay
The OCN Promoter Assay is an indicator and marker for osteoporosis. Desired assay results are EC50 less than or equal to 325 nM. Preferred assay results are less than 50 nM.
(3) Materials and Method for The OCN Promoter Assay:
The activation of osteocalcin by VDR ligands was evaluated in a rat osteoblast-like cell line RG-15 (ROS 17/2.8) stably expressing rat osteocalcin promoter fused with luciferase reporter gene. The stable cell lines were established as reported before (Activation of Osteocalcin Transcription involves interaction of protein kinase A- and Protein kinase C-dependent pathways. Boguslawski, G., Hale, L. V., Yu, X.-P., Miles, R. R., Onyia, J. E., Santerre R. F., Chandrasekhar, S. J Biol. Chem. 275, 999-1006, 2000). Confluent RG-15 cells maintained in DMEM/F-12 medium (3:1) containing 5% FBS, 300 µg/ml G418 and at 37° C. under 5% CO2/95% air atmosphere were trypsinized (0.25% trypsin) and plated into white opaque 96-well cell culture plates (25000 cells/well). After 24 hr, cells (in DMEM/F-12 medium+2% FBS) were treated with various concentrations of compounds, dissolved in DMSO. The final DMSO concentration remained at 0.01% (v/v). After 48 hr treatment, the medium was removed, cells were lysed with 50 µl of lysis buffer (From Luciferase reporter assay system, Roche Diagnostics, Indianapolis, Ind.) and assayed for luciferase activity using the Luciferase Reporter Gene Assay kit from Boehringer Mannheim as per manufacturer's specifications.

Row | Compound | EC50 [µM]
1 | CCC(CC)(c1ccc(OCC(O)C(C)(C)C)c(C)c1)c1cc(C)c(C(=O)N2CCC[C@H]2C(=O)OC)s1 (single isomer, unassigned) [Ex. 74, L-1-(5-{1-Ethyl-1-[4-(2-hydroxy-3,3-dimethyl-butoxy)-3-methyl-phenyl]-propyl}-3-methyl-thiophene-2-carbonyl)-pyrrolidine-2-carboxylic acid methyl ester] | 0.479
2 | CCC(CC)(c1ccc(OCC(O)C(C)(C)C)c(C)c1)c1cc(C)c(C(=O)NC(C)(C)C(=O)OC)s1 (single isomer, unassigned) [Ex. 76, 2-[(5-{1-Ethyl-1-[4-(2-hydroxy-3,3-dimethyl-butoxy)-3-methyl-phenyl]-propyl}-3-methyl-thiophene-2-carbonyl)-amino]-2-methyl-propionic acid methyl ester] | 0.0578
3 | CCC(CC)(c1ccc(OCC(C)(O)C(C)(C)C)c(C)c1)c1ccc(C(=O)O)s1 (single isomer, unassigned) [Ex. 105, 3′-[4-(2-hydroxy-2,3,3-trimethylbutoxy)-3-methylphenyl]-3′-[5-carboxy-thiophen-2-yl]pentane] | 0.736
4 | CCCc1cc(C(CC)(CC)c2ccc(C(=O)O)s2)ccc1OCC(C)(O)C(C)(C)C (single isomer, unassigned) [Ex. 112, 3′-[4-(2-hydroxy-2,3,3-trimethylbutoxy)-3-n-propylphenyl]-3′-[5-carboxy-thiophen-2-yl]pentane] | 0.005
5 | CCC(CC)(c1ccc(OCC(O)C(C)(C)C)c(C)c1)c1cc(C)c(C(=O)N[C@H](C)C(=O)O)s1 (stereo partly drawn) [Ex. 57, D-2-[(5-{1-Ethyl-1-[4-(2-hydroxy-3,3-dimethyl-butoxy)-3-methyl-phenyl]-propyl}-3-methyl-thiophene-2-carbonyl)-amino]-propionic acid] | 0.115
6 | CCC(CC)(c1ccc(OCC(O)C(C)(C)C)c(C)c1)c1cc(C)c(C(=O)N2CCC[C@H]2C(=O)O)s1 (stereo partly drawn) [Ex. 75, L-1-(5-{1-Ethyl-1-[4-(2-hydroxy-3,3-dimethyl-butoxy)-3-methyl-phenyl]-propyl}-3-methyl-thiophene-2-carbonyl)-pyrrolidine-2-carboxylic acid] | 0.423
7 | CCC(CC)(c1ccc(OCC(O)C(C)(C)C)c(C)c1)c1cc(C)c(C(=O)N[C@@H](C(=O)O)C(C)C)s1 (stereo partly drawn) [Ex. 86, D-2-[(5-{1-Ethyl-1-[4-(2-hydroxy-3,3-dimethyl-butoxy)-3-methyl-phenyl]-propyl}-3-methyl-thiophene-2-carbonyl)-amino]-3-methyl-butyric acid] | 0.205
8 | CCC(CC)(c1ccc(OCC(O)C(C)(C)C)c(C)c1)c1cc(C)c(C(=O)N[C@@H](C(=O)O)C(C)C)s1 (stereo partly drawn) [Ex. 87, D-2-[(5-{1-ethyl-1-[4-(2-hydroxy-3,3-dimethyl-butoxy)-3-methyl-phenyl]-propyl}-3-methyl-thiophene-2-carbonyl)-amino]-3-methyl-butyric acid] | > 1

same assay, conditions: Rattus norvegicus

Row | EC50 [µM] | Compound
9 | 0.111 | CCC(CC)(c1ccc(OCC(O)C(C)(C)C)c(C)c1)c1cc(C)c(CO)s1 (single isomer, unassigned) [Ex. 126]
10 | 0.0926 | CCC(CC)(c1ccc(OCC(O)C(C)(C)C)c(C)c1)c1cc(C)c(-c2n[nH]c(=O)o2)s1 (single isomer, unassigned) [Ex. 171]
11 | 0.141 | CCC(CC)(c1ccc(OCC(=O)C(C)(C)C)c(C)c1)c1cc(C)c(C(=O)OC)s1 [Ex. 1]
12 | 0.313 | CCC(CC)(c1ccc(OCS(C)(=O)=O)c(C)c1)c1cc(C)c(CCC(=O)C(C)(C)C)s1 [Ex. 13]
13 | 0.0466 | CCC(CC)(c1ccc(OCS(C)(=O)=O)c(C)c1)c1cc(C)c(CC[C@@H](O)C(C)(C)C)s1 [Ex. 14]
14 | 0.862 | CCC(CC)(c1ccc(C(=O)OC)c(C)c1)c1cc(C)c(CCC(=O)C(C)(C)C)s1 [Ex. 20]
15 | 0.14 | CCC(CC)(c1ccc(C(=O)OC)c(C)c1)c1cc(C)c(CCC(O)C(C)(C)C)s1 (stereo not drawn) [Ex. 21]
16 | 0.0047 | CCC(CC)(c1ccc(C(=O)NCC(=O)OC)c(C)c1)c1cc(C)c(CCC(O)C(C)(C)C)s1 (stereo not drawn) [Ex. 24]
17 | 0.00795 | CCC(CC)(c1ccc(C(=O)NCC(=O)O)c(C)c1)c1cc(C)c(CCC(O)C(C)(C)C)s1 (stereo not drawn) [Ex. 26]
18 | 0.0078 | CCC(CC)(c1ccc(OCC(=O)OC)c(C)c1)c1cc(C)c(CCC(O)C(C)(C)C)s1 (stereo not drawn) [Ex. 31]
19 | 0.00935 | CCC(CC)(c1ccc(OCC(=O)O)c(C)c1)c1cc(C)c(CCC(O)C(C)(C)C)s1 (stereo not drawn) [Ex. 32]
20 | 0.3 | CCC(CC)(c1ccc(OCC(=O)C(C)(C)C)c(C)c1)c1cc(C)c(C(=O)NCCS(C)(=O)=O)s1 [Ex. 41, 5-{1-[4-(3,3-Dimethyl-2-oxo-butyoxy)-3-methyl-phenyl]-1-ethyl-propyl}-3-methyl-thiophene-2-carbolic acid (2-methanesulfonyl-ethyl]-amide]
21 | 0.0335 | CCC(CC)(c1ccc(OCC(O)C(C)(C)C)c(C)c1)c1cc(C)c(C(=O)N(C)OC)s1 (stereo not drawn) [Ex. 42, 5-{1-Ethyl-1-[4-(2-hydroxy-3,3-dimetliyl-butyoxy)-3-methyl-phenyl]-propyl}-3methyl-thiophene-2-carboxylic acid methoxy-methyl-amide]
22 | 0.0436 | CCC(CC)(c1ccc(OCC(O)C(C)(C)C)c(C)c1)c1cc(C)c(C(=O)NCC(=O)OC)s1 (stereo not drawn) [Ex. 46, 2-[5-{1-Ethyl-1-{4-(2-hydroxy-3,3-dimethyl-butyoxy)-3-methyl-phenyl-propyl}-3-methyl-thiophene-2-carbonyl)-amino]-acetic acid methyl ester]
23 | 0.0277 | CCC(CC)(c1ccc(OCC(O)C(C)(C)C)c(C)c1)c1cc(C)c(C(=O)NCC(=O)O)s1 (stereo not drawn) [Ex. 47, 2-[5-{1-Ethyl-1-{4-(2-hydroxy-3,3-dimethyl-butyoxy)-3-methyl-phenyl-propyl}-3-methyl-thiophene-2-carbonyl)-amino]-acetic acid]

Row | Compound | EC50 [µM]
24 | CCC(CC)(c1ccc(OCC(O)C(C)(C)C)c(C)c1)c1cc(C)c(C(=O)N2CCC[C@H]2C(=O)O)s1 (single isomer, unassigned) [Ex. 73, L-1-(5-{1-Ethyl-1-[4-(2-hydroxy-3,3-dimethyl-butoxy)-3-methyl-phenyl]-propyl}-3-methyl-thiophene-2-carbonyl)pyrrolidine-2-carboxylic acid] | 0.266
25 | CCC(CC)(c1ccc(OCC(O)C(C)(C)C)c(C)c1)c1cc(C)c(C(=O)N(C)CC(=O)O)s1 (single isomer, unassigned) [Ex. 122, N-methyl-2-[(5-{1-ethyl-1-[4-(2-hydroxy-3,3-dimethyl-butoxy)-3-methyl-phenyl]-propyl}-3-methyl-thiophene-2-carbonyl)-methylamino]-acetic acid] | 0.0675
26 | Cc1cc(C2(c3ccc(OCC(=O)C(C)(C)C)c(C)c3)CCCCC2)ccc1OCC(=O)C(C)(C)C [CC, 1-(4-{1-[4-(3,3-Dimethyl-2-oxo-butoxy)-3-methyl-phenyl]-cyclohexyl}-2-methyl-phenoxy)-3,3-dimethyl-butan-2-one, reference compound] | > 1
27 | CCC(CC)(c1ccc(OCC(O)C(C)(C)C)c(C)c1)c1cc(C)c(C(=O)NCCS(C)(=O)=O)s1 (stereo not drawn) [Ex. 38, 5-[1-ethyl-1-[4-(2-hydroxy-3,3-dimethyl-butoxy)-3-methylphenyl]propyl]-3-methylthiophene-2-carboxylic acid (2-methylsulfonyl-ethyl) amide] | 0.38
28 | CCC(O)(CC)COc1ccc(C(CC)(CC)c2cc(C)c(C(=O)O)s2)cc1C [Ex. 51, 5-{1-Ethyl-1-[4-(2-ethyl-2-hydroxy-butoxy)-3-methyl-phenyl]-propyl}-3-methyl-thiophene-2-carboxylic acid] | 0.781
29 | CCC(O)(CC)COc1ccc(C(CC)(CC)c2cc(C)c(C(=O)NCC(=O)O)s2)cc1C [Ex. 53, 2-[(5-{1-Ethyl-1-[4-(2-ethyl-2-hydroxy-butoxy)-3-methyl-phenyl]-propyl}-3-methyl-thiophene-2-carbonyl)-amino]-acetic acid] | 0.267
30 | CCC(CC)(c1ccc(OCC(O)C(C)(C)C)c(C)c1)c1cc(C)c(C(=O)N[C@@H](CC(=O)O)C(=O)O)s1 (stereo partly drawn) [Ex. 59, L-2-[(5-{1-Ethyl-1-[4-(2-hydroxy-3,3-dimethyl-butoxy)-3-methyl-phenyl]-propyl}-3-methyl-thiophene-2-carbonyl)-amino]-succinic acid] | 0.319
31 | CCC(C)[C@H](NC(=O)c1sc(C(CC)(CC)c2ccc(OCC(O)C(C)(C)C)c(C)c2)cc1C)C(=O)OC (stereo partly drawn) [Ex. 68, L-2-[(5-{1-Ethyl-1-[4-(2-hydroxy-3,3-dimethyl-butoxy)-3-methyl-phenyl]-propyl}-3-methyl-thiophene-2-carbonyl)-amino]-3-methyl-pentanoic acid methyl ester] | 0.056
32 | CCC(C)[C@H](NC(=O)c1sc(C(CC)(CC)c2ccc(OCC(O)C(C)(C)C)c(C)c2)cc1C)C(=O)O (stereo partly drawn) [Ex. 69, L-2-[(5-{1-Ethyl-1-[4-(2-hydroxy-3,3-dimethyl-butoxy)-3-methyl-phenyl]-propyl}-3-methyl-thiophene-2-carbonyl)-amino]-3-methyl-pentanoic acid] | 0.487
33 | CCC(CC)(c1ccc(OCC(O)C(C)(C)C)c(C)c1)c1cc(C)c(C(=O)N2CCC[C@@H]2C(=O)O)s1 (stereo partly drawn) [Ex. 81, D-1-(5-{1-ethyl-1-[4-(2-hydroxy-3,3-dimethyl-butoxy)-3-methyl-phenyl]-propyl}-3-methyl-thiophene-2-carbonyl)-pyrrolidine-2-carboxylic acid] | 0.2
